Where a chain is given by its changes, count along the chain named. Read-outs that look alike come from different tables or passages of the source.
What was measured:
Type in all cases: biochemical
PPIP5K2^KD K103A mutant = molecular target: T1, PPIP5K2^KD K103A mutant (Homo sapiens, UniProt O43314, K103A); assay: ATPase activity of K103A mutant; conditions: Figures 7B and 7C
T1 construct: The kinase domain of human PPIP5K2 (PPIP5K2^KD; residues 1–366); made in house
T1 sequence (O43314 1-366 K103A): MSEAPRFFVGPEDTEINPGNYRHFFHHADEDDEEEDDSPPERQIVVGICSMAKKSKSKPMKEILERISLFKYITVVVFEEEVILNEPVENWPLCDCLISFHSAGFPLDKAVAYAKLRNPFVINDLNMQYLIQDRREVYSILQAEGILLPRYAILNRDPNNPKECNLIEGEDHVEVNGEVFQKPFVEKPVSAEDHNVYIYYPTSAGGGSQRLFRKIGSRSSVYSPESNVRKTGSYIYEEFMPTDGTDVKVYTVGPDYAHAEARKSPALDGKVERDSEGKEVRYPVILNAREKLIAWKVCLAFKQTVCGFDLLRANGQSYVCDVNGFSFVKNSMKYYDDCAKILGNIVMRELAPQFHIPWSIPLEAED
Description: (§1) The initial InsP6 concentration was either 500 nM, 70 nM, or 40 nM. Various concentrations of 2,5-di-O-Bn-InsP4 were present as indicated. Radioactivity was assessed using an in-line Flo1 detector. The ADP-driven dephosphorylation of 100 nM 1,5-[PP]2-InsP4 by PPIP5K2^KD was usually determined by a luminescence-based assay of ATP accumulation ([Riley et al., 2012; Weaver et al., 2013]). The IC50 values were determined using GraphPad Prism v6.02 (n ≥ 3). In some experiments, 1,5-[PP]2-[^3H]InsP4 dephosphorylation by PPIP5K2^KD was assayed in 50 μl buffer containing 50 mM KCl, 20 mM HEPES pH 7.0, 7 mM MgSO4, 5 mM ADP, 1 mM EDTA. Reactions were then quenched, neutralized, and analyzed with HPLC using a Partisphere SAX column ([Weaver et al., 2013]); 1 ml fractions were collected for liquid scintillation spectrometry. The ATPase activity of PPIP5K2^KD (10–270 μg/ml) was assayed from Pi release following incubation at 37°C for 120–180 min in 20 μl reaction mixtures containing 20 mM Tris/HCl, pH 7.5, 10 mM ATP, 100 mM KCl, 0.1 mM EDTA, and 13 mM MgCl2.
(§2) Protein Expression, Purification, Crystallization and Structure Determination […]
(§3) The structure was further manually rebuilt with COOT and refined with PHENIX and
(§4) REFMAC from the CCP4 package. Ligand topology and parameter files were prepared using
(§5) the PRODRG server. The molecular graphics representations were prepared with the program […]

[1] = molecular target: T2, PPIP5K2^KD (kinase domain of human PPIP5K2) (Homo sapiens, UniProt O43314); assay: ATPase activity of PPIP5K2KD (Pi release); conditions: for stimulation of ATPase activity (in words): 25 μM, wild-type enzyme, Figure 2
T2 construct: The kinase domain of human PPIP5K2 (PPIP5K2^KD; residues 1–366); made in house
T2 sequence (O43314 1-366): T1 sequence (O43314 1-366 K103A) with A103K
Description: as §1

[2] = molecular target: T2, PPIP5K2^KD (kinase domain of human PPIP5K2); assay: Reverse-kinase assay: ADP-driven dephosphorylation of 1,5-[PP]2-InsP4, luminescence-based assay of ATP accumulation; conditions: for IC50: 100 nM [PP]2-InsP4, key of Figure 4B, n = 3, read-out: IC50, inhibition of ADP-driven dephosphorylation of [PP]2-InsP4
Description: The six compounds that were selected for the dose-response curves in the assays of ATP hydrolysis (Figure 4A) were now investigated for their effects upon diphosphoinositol polyphosphate metabolism by PPIP5K2^KD (Figure 4B). We used a high-throughput reverse-kinase assay that records ATP generated from ADP during the dephosphorylation of 100 nM 1,5-[PP]2-InsP4 ([Riley et al., 2012; Weaver et al., 2013]). Each of the tested analogs inhibited [PP]2-InsP4 metabolism by PPIP5K2^KD (Figure 4B). […] However, the inhibition by 2,5-di-O-Bn-InsP4 (10) was more unexpected because due to its bulk, and its less negative charge compared to physiological substrates, we predict it to be a poor ligand for the active site of the highly specific PPIP5K2^KD ([Wang et al., 2012]). Nevertheless, its ability to inhibit reverse-kinase activity was directly confirmed by high-performance liquid chromatography (HPLC) analysis of [PP]2-[^3H]InsP4 dephosphorylation (Figures S1A–S1C available online).
as §1

PPIP5K2^KD K54A mutant = molecular target: T3, PPIP5K2^KD K54A mutant (Homo sapiens, UniProt O43314, K54A); assay: ATPase activity of K54A mutant; conditions: Figures 7B and 7C
T3 construct: The kinase domain of human PPIP5K2 (PPIP5K2^KD; residues 1–366); made in house
T3 sequence (O43314 1-366 K54A): T1 sequence (O43314 1-366 K103A) with K54A, A103K
Description: as §1, §2, §3, §4, §5

| analog-activated ATPase activity compared to wild-type enzyme (in words) (PPIP5K2^KD K103A mutant) | stimulation of ATP hydrolysis ([1]; 25 μM analog) | EC50 ([1]; dose-response, key of Figure 4A, n = 3, read-out: EC50, stimulation of ATPase activities) | inhibition of [PP]2-InsP4 metabolism (in words) ([2]; 100 nM 1,5-[PP]2-InsP4, Figure 4B) | IC50 [2] | EC50 ([1]; Figure 4A, read-out: EC50, stimulation of ATPase activity) | Compound | stimulation of ATPase activity (in words) [1] | stimulation of ATPase activity vs wild-type (in words) (PPIP5K2^KD K54A mutant) |
| --- | --- | --- | --- | --- | --- | --- | --- | --- |
| only a slight reduction | 9 fold | 550 nM | equally efficient | 420 nM |  | O=C(CP(=O)(O)O)O[C@@H]1[C@@H](OP(=O)(O)O)[C@H](OP(=O)(O)O)[C@H](OCc2ccccc2)[C@H](OP(=O)(O)O)[C@H]1OP(=O)(O)O [compound 2, 2-O-benzyl-5-O-α-phosphonoacetyl-myo-inositol 1,3,4,6-tetrakisphosphate] | strongly activated | substantially impaired degree of stimulation |
| only a slight reduction |  |  |  | 170 nM | 340 nM | O=P(O)(O)O[C@@H]1[C@@H](OCc2ccccc2)[C@H](OP(=O)(O)O)[C@@H](OP(=O)(O)O)[C@@H](OCc2ccccc2)[C@H]1OP(=O)(O)O [compound 10, 2,5-di-O-Bn-InsP4] | highest degree of ATPase activity among all of the analogs | substantially impaired degree of stimulation |

From paper PMC4085797, “Synthetic Inositol Phosphate Analogs Reveal that PPIP5K2 Has a Surface-Mounted Substrate Capture Site that Is a Target for Drug Discovery” (Chemistry & Biology, 2014)
